Data from patent US12673946B2, “Pyrimidin-4(3H)-one derivatives as TRPV4 antagonists” (RaQualia Pharma Inc., priority 2020, dated 2026).

Target: T1, human TRPV4 (Homo sapiens, UniProt Q9HBA0)
T1 construct: host or cells: tetracycline-inducible Flp-In T-REx 293 cells
Test: Hypotonicity-induced Ca2+ influx (Fluo-4, FDSS)
Format: cell-based
Outline: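 Flp-In T-REx 293 cells with tetracycline-induced human TRPV4, loaded with Fluo-4 for 60 min at 25 °C. Compound added 5 min before hypotonic mannitol/CaCl2 solution. Ca2+ signal recorded for 4.5 min on FDSS.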

[1] = Flp-In T-REx 293 cells expressing human TRPV4, examples listed under heading 'Human IC50<50 nM'
[2] = Flp-In T-REx 293 cells stably expressing human TRPV4, compounds listed by potency bin (<10 nM Tables 96-1/96-2, <3 nM Table 97)

T1 sequence (Q9HBA0 whole entry): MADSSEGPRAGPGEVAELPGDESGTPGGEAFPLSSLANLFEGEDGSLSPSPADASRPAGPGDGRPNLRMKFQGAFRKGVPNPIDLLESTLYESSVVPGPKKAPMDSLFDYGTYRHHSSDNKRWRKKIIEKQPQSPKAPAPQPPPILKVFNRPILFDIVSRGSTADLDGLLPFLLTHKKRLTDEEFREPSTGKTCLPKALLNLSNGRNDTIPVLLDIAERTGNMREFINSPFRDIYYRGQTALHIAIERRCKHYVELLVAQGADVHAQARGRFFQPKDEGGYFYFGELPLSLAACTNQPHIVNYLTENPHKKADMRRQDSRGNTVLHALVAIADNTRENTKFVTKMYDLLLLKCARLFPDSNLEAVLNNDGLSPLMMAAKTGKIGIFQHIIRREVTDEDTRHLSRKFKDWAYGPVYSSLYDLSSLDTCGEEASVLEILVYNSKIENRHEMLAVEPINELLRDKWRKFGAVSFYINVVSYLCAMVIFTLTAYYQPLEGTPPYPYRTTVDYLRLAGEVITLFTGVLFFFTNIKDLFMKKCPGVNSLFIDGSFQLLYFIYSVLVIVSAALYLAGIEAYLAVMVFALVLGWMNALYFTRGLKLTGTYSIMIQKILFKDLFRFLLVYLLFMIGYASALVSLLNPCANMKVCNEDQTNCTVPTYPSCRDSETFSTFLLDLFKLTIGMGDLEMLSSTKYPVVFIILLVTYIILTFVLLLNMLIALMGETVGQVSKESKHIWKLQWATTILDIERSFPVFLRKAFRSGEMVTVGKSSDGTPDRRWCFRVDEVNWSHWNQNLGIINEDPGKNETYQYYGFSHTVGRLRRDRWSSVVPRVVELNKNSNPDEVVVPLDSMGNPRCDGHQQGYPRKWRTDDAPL

O=C(C(O)c1cccc(Cl)c1F)N1CCCc2nc(C3(c4cccc(Oc5ccccc5)c4)CC3)[nH]c(=O)c2C1 (stereo not shown) [17-81]
IC50 [1]: < 0.05 µM
IC50 [2]: < 0.01 µM

O=C([C@H](O)c1cccc(Cl)c1)N1CCCc2nc(C3(c4cccc(-c5ccccc5)c4)CC3)[nH]c(=O)c2C1 [40-1]
IC50 [1]: < 0.05 µM
IC50 [2]: < 0.003 µM

O=C([C@H](O)c1cccc(C(F)(F)F)c1)N1CCc2nc(C3(c4cc(C5CCCCC5)cs4)CC3)[nH]c(=O)c2C1 [15-4]
IC50 [1]: < 0.05 µM
IC50 [2]: < 0.003 µM

O=C(C(O)c1cccc(OCc2ccccc2)c1)N1CCc2nc(C3(c4ccccc4)CC3)[nH]c(=O)c2C1 (stereo not shown) [14-111]
IC50 [1]: < 0.05 µM

CC(C)c1csc(C2(c3nc4c(c(=O)[nH]3)CN(C(=O)[C@H](O)c3cccc(-c5cccc(OC(F)(F)F)c5)c3)CCC4)CC2)c1 [54-2]
IC50 [1]: < 0.05 µM
IC50 [2]: < 0.01 µM

CC(C)(C)c1cccc(-c2cccc([C@@H](O)C(=O)N3CCCc4nc(C5(c6ccccc6)CC5)[nH]c(=O)c4C3)c2)c1 [49-16]
IC50 [1]: < 0.05 µM
IC50 [2]: < 0.003 µM

O=C(C(O)c1cccc(-c2cccc(OC(F)(F)F)c2)c1)N1CCc2nc(C3(c4ccccc4)CC3)[nH]c(=O)c2C1 (stereo not shown) [44-1, 6-(2-hydroxy-2-(3′-(trifluoromethoxy)-[1,1′-biphenyl]-3-yl)acetyl)-2-(1-phenylcyclopropyl)-5,6,7,8-tetrahydropyrido[4,3-d]pyrimidin-4(3H)-one]
IC50 [1]: < 0.05 µM
IC50 [2]: < 0.01 µM

CN(Cc1ccc(-c2cccc(C3(c4nc5c(c(=O)[nH]4)CN(C(=O)[C@H](O)c4cccc(C(F)(F)F)c4)CCC5)CC3)c2)cc1)C(=O)N1CCCCC1 [42-91]
IC50 [1]: < 0.05 µM
IC50 [2]: < 0.01 µM

CC(C)(C)c1cccc(-c2cccc([C@@H](O)C(=O)N3CCCc4c(nc(C5(c6ccccc6)CC5)[nH]c4=O)C3)c2)c1 [49-55]
IC50 [1]: < 0.05 µM
IC50 [2]: < 0.01 µM

O=C([C@H](O)c1cccc(C(F)(F)F)c1)N1CCCc2nc(C3(c4ccccc4)CC3)[nH]c(=O)c2C1 [17-37]
IC50 [1]: < 0.05 µM
IC50 [2]: < 0.01 µM

O=C(C(O)c1cccc(C(F)(F)F)c1F)N1CCCc2nc(C3(c4cccs4)CC3)[nH]c(=O)c2C1 (stereo not shown) [18-3]
IC50 [1]: < 0.05 µM
IC50 [2]: < 0.003 µM

O=C([C@H](O)c1cccc(Cl)c1)N1CCCc2nc(C3(c4cccc(C5=CCCCC5)c4)CC3)[nH]c(=O)c2C1 [40-20]
IC50 [1]: < 0.05 µM
IC50 [2]: < 0.003 µM

O=C(Cc1cccc(S(F)(F)(F)(F)F)c1)N1CCCc2nc(C3(c4ccccc4)CC3)[nH]c(=O)c2C1 [17-31]
IC50 [1]: < 0.05 µM
IC50 [2]: < 0.01 µM

O=C([C@H](O)c1cccc(Cl)c1)N1CCCc2nc(C3(c4cc(-c5ccccc5)cs4)CC3)[nH]c(=O)c2C1 [39-1]
IC50 [1]: < 0.05 µM
IC50 [2]: < 0.003 µM

O=C(C(O)c1cccc(-c2cc3ccccc3s2)c1)N1CCc2nc(C3(c4ccccc4)CC3)[nH]c(=O)c2C1 (stereo not shown) [44-9]
IC50 [1]: < 0.05 µM
IC50 [2]: < 0.01 µM

O=C([C@H](O)c1cccc(-c2ccnc(C(F)(F)F)c2)c1)N1CCCc2nc(C3(c4cccc(Cl)c4)CC3)[nH]c(=O)c2C1 [50-11]
IC50 [1]: < 0.05 µM
IC50 [2]: < 0.003 µM

O=C(N1CCCc2nc(C3(c4ccccc4)CC3)[nH]c(=O)c2C1)C(F)(F)c1cccc(C(F)(F)F)c1 [20-1]
IC50 [1]: < 0.05 µM
IC50 [2]: < 0.003 µM

O=C([C@H](O)c1cccc(-c2ccc3c(c2)CCO3)c1)N1CCc2nc(C3(c4ccccc4)CC3)[nH]c(=O)c2C1 [44-116]
IC50 [1]: < 0.05 µM

O=C([C@H](O)c1cccc(C(F)(F)F)c1)N1CCCc2nc(C3(c4cc(CCC5CC5)cs4)CC3)[nH]c(=O)c2C1 [30-8]
IC50 [1]: < 0.05 µM
IC50 [2]: < 0.01 µM

Cn1ncc2c(-c3cccc(C4(c5nc6c(c(=O)[nH]5)CN(C(=O)[C@H](O)c5cccc(C(F)(F)F)c5)CCC6)CC4)c3)cccc21 [42-24]
IC50 [1]: < 0.05 µM
IC50 [2]: < 0.01 µM

CN(C)Cc1cccc(-c2cccc(C3(c4nc5c(c(=O)[nH]4)CN(C(=O)[C@H](O)c4cccc(C(F)(F)F)c4)CCC5)CC3)c2)c1 [42-36]
IC50 [1]: < 0.05 µM

CC(c1cccc(C2(c3nc4c(c(=O)[nH]3)CN(C(=O)[C@H](O)c3cccc(C(F)(F)F)c3)CCC4)CC2)c1)C(F)(F)F (stereo partly shown) [31-4]
IC50 [1]: < 0.05 µM
IC50 [2]: < 0.003 µM

CC(C)(C)c1ccc(-c2cccc(CC(=O)N3CCc4nc(C5(c6cccc(Cl)c6)CC5)[nH]c(=O)c4C3)c2)cc1 [14-116]
IC50 [1]: < 0.05 µM

O=C(C(O)c1cccc(-c2cnc3ccccc3c2)c1)N1CCc2nc(C3(c4ccccc4)CC3)[nH]c(=O)c2C1 (stereo not shown) [44-12]
IC50 [1]: < 0.05 µM
IC50 [2]: < 0.01 µM

O=C([C@H](O)c1cccc(Cl)c1)N1CCCc2nc(C3(c4ccccc4)CC3)[nH]c(=O)c2C1 [10-7]
IC50 [1]: < 0.05 µM

O=C([C@H](O)c1cccc(-c2cccc(C3CC3)c2)c1)N1CCc2nc(C3(c4ccccc4)CC3)[nH]c(=O)c2C1 [44-105]
IC50 [1]: < 0.05 µM
IC50 [2]: < 0.01 µM

O=C(Cc1ccccc1Oc1ccccc1)N1CCCc2nc(C3(c4ccccc4)CC3)[nH]c(=O)c2C1 [17-143]
IC50 [1]: < 0.05 µM

O=C([C@H](O)c1cccc(-c2ccc(F)c(Cl)c2)c1)N1CCCc2nc(C3(c4ccccc4)CC3)[nH]c(=O)c2C1 [49-30]
IC50 [1]: < 0.05 µM
IC50 [2]: < 0.003 µM

O=C(Cc1cccc(-c2ccc(OC(F)(F)F)cc2)c1)N1CCCc2nc(C3(c4cccc(Cl)c4)CC3)[nH]c(=O)c2C1 [17-129]
IC50 [1]: < 0.05 µM
IC50 [2]: < 0.01 µM
